Data as given in US20260242753A1, “NOVEL INHIBITORS OF HISTONE […] NUCLEAR LOCALISATION” (The Council of the Queensland Institute of Medical Research, priority 2022, published 2026).

Tested on: SETDB1, CSV, ATF7IP, IMPα1 in H1299 cells
Experiment: IFA microscopy of SETDB1, CSV, ATF7IP, IMPα1 in H1299
Format: cell-based, human
Set-up: dose or concentration left out as unconfirmed
Description: FIG. 18. […] Protein targets were localized by ASI digital pathology. […] Protein targets were localized by ASI digital pathology.
IFA microscopy and cell culture methods were performed as described in detail, above.

**Q.** Mithramycin A [MTH] was tested. Which “expression of mesenchymal metastatic marker CSV” value did it give?
**A.** induced an increase

**Q.** And the “nuclear expression of SETDB1” value?
**A.** no effect
